Consider one compound from BindingDB's records for doi:10.1080/14756360802188420 (Bahauddin Zakariya University, 2009).

The target in this assay is Urease (Canavalia ensiformis, UniProt P07374). Nature of the assay: Inhibition Assay. An excerpt:
Inhibition assay using urease from jack bean.

Sequence of Urease (P07374 whole entry): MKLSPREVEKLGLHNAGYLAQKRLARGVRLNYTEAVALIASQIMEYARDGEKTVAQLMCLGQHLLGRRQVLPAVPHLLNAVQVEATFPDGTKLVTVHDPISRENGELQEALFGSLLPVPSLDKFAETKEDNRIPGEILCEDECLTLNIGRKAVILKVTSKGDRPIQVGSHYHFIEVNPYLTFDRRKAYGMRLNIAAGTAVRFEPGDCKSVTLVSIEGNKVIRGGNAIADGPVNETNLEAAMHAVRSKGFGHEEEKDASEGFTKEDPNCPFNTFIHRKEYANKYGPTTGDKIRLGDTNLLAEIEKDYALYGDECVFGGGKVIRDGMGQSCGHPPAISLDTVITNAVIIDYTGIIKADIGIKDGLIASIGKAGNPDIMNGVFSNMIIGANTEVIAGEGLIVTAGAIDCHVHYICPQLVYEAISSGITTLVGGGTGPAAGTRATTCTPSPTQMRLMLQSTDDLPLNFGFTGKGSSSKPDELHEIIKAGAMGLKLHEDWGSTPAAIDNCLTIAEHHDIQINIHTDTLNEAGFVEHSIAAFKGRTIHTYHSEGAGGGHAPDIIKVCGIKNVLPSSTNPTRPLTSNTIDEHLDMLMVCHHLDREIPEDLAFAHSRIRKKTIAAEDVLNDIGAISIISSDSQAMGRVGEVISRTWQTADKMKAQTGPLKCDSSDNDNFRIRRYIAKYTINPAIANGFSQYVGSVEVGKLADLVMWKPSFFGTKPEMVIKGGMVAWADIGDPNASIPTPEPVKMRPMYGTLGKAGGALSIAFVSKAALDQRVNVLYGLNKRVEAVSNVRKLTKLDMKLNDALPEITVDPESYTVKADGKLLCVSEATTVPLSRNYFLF

One may read the IC50 as the midpoint of a concentration-inhibition curve. Low readings indicate greater potency, high ones weaker potency. For the compound `O=C1Nc2ccccc2/C1=N/NC(=S)Nc1c(Cl)cc(Cl)cc1Cl` [Thiosemicarbazone, 2l], the midpoint of inhibition, the IC50, lay at 28.6 µM.
